Experimental data published in article PMC7991740, “Introduction of Non-natural Amino Acids Into T-Cell Epitopes to Mitigate Peptide-Specific T-Cell Responses” (Frontiers in Immunology, 2021).
Read-outs that look alike come from different tables or passages of the source. Where a SMILES comes first, the peptide text is derived from it. [ ]: non-standard residue; d: D form. Aib = CC(C)(N)C(=O)O

Assays:
Assay in all cases: biochemical
Type in all cases: binding
[1] = target: T1, HLA-DRB5*01:01 (Homo sapiens, UniProt P01903+Q30154)
T1 construct: Human leukocyte antigen-DR molecules were immunopurified from homozygous EBV B lymphoblastoid cells; endogenous in cells

[2] = target: T2, HLA-DRB1*04:01 (Homo sapiens, UniProt P01903+P01911, A100K/A169T/F76Y/I96L/K127E/L162R/M171V/N62H/P40V/Q125Y/R42H/S133A/S149N/S66Y/V115G/V209L/W38E)
T2 construct: Human leukocyte antigen-DR molecules were immunopurified from homozygous EBV B lymphoblastoid cells; endogenous in cells

[3] = target: HLA-DRB1*11:01 (Homo sapiens, UniProt P01903+P01911, A100R/A169T/A87E/I96F/K41T/L162R/M171V/P40S/Q125H/Q178H/Q39Y/Q99D/R42S/S66Y/T262R/V115G/W38E)
[4] = target: T3, HLA-DRB1*01:01 (Homo sapiens, UniProt P01903+P01911, A100R/D57E/F55L/F60I/F76Y/I96L/L162R/M171V/P40L/Q125E/R42F/V115G/Y59C)
T3 construct: Human leukocyte antigen-DR molecules were immunopurified from homozygous EBV B lymphoblastoid cells; endogenous in cells

[5] = target: HLA-DRB1*07:01 (Homo sapiens, UniProt P01903+P01911, A100R/A102G/A103Q/D57E/D86V/E43K/F76Y/K127E/L162R/M171V/P40G/Q125H/Q99D/R33Q/R42Y/R54Q/S133A/S66F/T210M/V115G/Y107V/Y59L/Y89S)
[6] = […], mean of at least two independent experiments, read-out: IC50 DRB5*0101
[7] = […], mean of at least two independent experiments, read-out: IC50 DRB1*0401
[8] = […], mean of at least two independent experiments, read-out: IC50 DRB1*1101 (converted)
[9] = […], mean of at least two independent experiments, read-out: IC50 DRB1*0101
[10] = […], mean of at least two independent experiments, read-out: IC50 DRB1*0701 (converted)

HLA-DRB1*11:01, sequence (P01903 26-254 limits assumed, other chains not shown): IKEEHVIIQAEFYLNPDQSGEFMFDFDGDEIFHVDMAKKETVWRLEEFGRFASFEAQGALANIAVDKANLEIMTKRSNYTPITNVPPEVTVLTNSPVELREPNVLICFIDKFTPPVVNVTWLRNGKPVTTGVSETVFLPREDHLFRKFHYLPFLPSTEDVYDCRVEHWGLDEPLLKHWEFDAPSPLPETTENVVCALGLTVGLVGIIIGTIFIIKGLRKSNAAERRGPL

| Structure (SMILES) | IC50 [1, 6] [nM] | IC50 [2, 7] [nM] | IC50 [3, 8] [nM] | IC50 [4, 9] [nM] | IC50 [5, 10] [nM] | IC50 [1] [nM] | IC50 [2] [nM] | IC50 [3] [nM] | IC50 ([4]; IC50 DRB1*0101) [nM] | IC50 [5] [nM] |
| --- | --- | --- | --- | --- | --- | --- | --- | --- | --- | --- |
| CC(C)C[C@H](NC(=O)[C@H](CCCCN)NC(=O)[C@H](CC(C)C)NC(=O)[C@@H](NC(=O)[C@H](CC(N)=O)NC(=O)[C@H](CCC(N)=O)NC(=O)[C@H](CCCCN)NC(=O)[C@@H](NC(=O)[C@H](Cc1ccc(O)cc1)NC(=O)[C@H](CCCCN)NC(=O)C(C)(C)N)C(C)C)[C@@H](C)O)C(=O)N[C@@H](C)C(=O)N[C@H](C(=O)O)[C@@H](C)O [Aib1] (H-[Aib]KYVKQNTLKLAT-OH) | 3 | 20 | 18 | 0.3 | 11 | – | – | – | – | – |
| CC(C)C[C@H](NC(=O)[C@H](CCCCN)NC(=O)[C@H](CC(C)C)NC(=O)[C@@H](NC(=O)[C@H](CC(N)=O)NC(=O)[C@H](CCC(N)=O)NC(=O)[C@H](CCCCN)NC(=O)[C@@H](NC(=O)[C@H](Cc1ccc(O)cc1)NC(=O)C(C)(C)NC(=O)[C@@H]1CCCN1)C(C)C)[C@@H](C)O)C(=O)N[C@@H](C)C(=O)N[C@H](C(=O)O)[C@@H](C)O [Aib2] (H-P[Aib]YVKQNTLKLAT-OH) | 500 | 95 | 4000 | 8 | 7700 | – | – | – | – | – |
| CC(C)C[C@H](NC(=O)[C@H](CCCCN)NC(=O)[C@H](CC(C)C)NC(=O)[C@@H](NC(=O)[C@H](CC(N)=O)NC(=O)[C@H](CCC(N)=O)NC(=O)[C@H](CCCCN)NC(=O)[C@@H](NC(=O)C(C)(C)NC(=O)[C@H](CCCCN)NC(=O)[C@@H]1CCCN1)C(C)C)[C@@H](C)O)C(=O)N[C@@H](C)C(=O)N[C@H](C(=O)O)[C@@H](C)O [Aib3] | > 10000 | > 100000 | > 100000 | 60 | 460 | – | – | – | – | – |
| CC(C)C[C@H](NC(=O)[C@H](CCCCN)NC(=O)[C@H](CC(C)C)NC(=O)[C@@H](NC(=O)[C@H](CC(N)=O)NC(=O)[C@H](CCC(N)=O)NC(=O)[C@H](CCCCN)NC(=O)C(C)(C)NC(=O)[C@H](Cc1ccc(O)cc1)NC(=O)[C@H](CCCCN)NC(=O)[C@@H]1CCCN1)[C@@H](C)O)C(=O)N[C@@H](C)C(=O)N[C@H](C(=O)O)[C@@H](C)O [Aib4] | 280 | 75 | 4000 | 10 | 6000 | – | – | – | – | – |
| CC(C)C[C@H](NC(=O)[C@H](CCCCN)NC(=O)[C@H](CC(C)C)NC(=O)[C@@H](NC(=O)[C@H](CC(N)=O)NC(=O)[C@H](CCC(N)=O)NC(=O)C(C)(C)NC(=O)[C@@H](NC(=O)[C@H](Cc1ccc(O)cc1)NC(=O)[C@H](CCCCN)NC(=O)[C@@H]1CCCN1)C(C)C)[C@@H](C)O)C(=O)N[C@@H](C)C(=O)N[C@H](C(=O)O)[C@@H](C)O [Aib5] | 600 | 30 | 300 | 1 | 780 | – | – | – | – | – |
| CC(C)C[C@H](NC(=O)[C@H](CCCCN)NC(=O)[C@H](CC(C)C)NC(=O)[C@@H](NC(=O)[C@H](CC(N)=O)NC(=O)C(C)(C)NC(=O)[C@H](CCCCN)NC(=O)[C@@H](NC(=O)[C@H](Cc1ccc(O)cc1)NC(=O)[C@H](CCCCN)NC(=O)[C@@H]1CCCN1)C(C)C)[C@@H](C)O)C(=O)N[C@@H](C)C(=O)N[C@H](C(=O)O)[C@@H](C)O [Aib6] | 5 | 55000 | 150 | 0.7 | 75 | – | – | – | – | – |
| CC(C)C[C@H](NC(=O)[C@H](CCCCN)NC(=O)[C@H](CC(C)C)NC(=O)[C@@H](NC(=O)C(C)(C)NC(=O)[C@H](CCC(N)=O)NC(=O)[C@H](CCCCN)NC(=O)[C@@H](NC(=O)[C@H](Cc1ccc(O)cc1)NC(=O)[C@H](CCCCN)NC(=O)[C@@H]1CCCN1)C(C)C)[C@@H](C)O)C(=O)N[C@@H](C)C(=O)N[C@H](C(=O)O)[C@@H](C)O [Aib7] (H-PKYVKQ[Aib]TLKLAT-OH) | 900 | 45 | 6000 | 6.8 | 4200 | – | – | – | – | – |
| CC(C)C[C@H](NC(=O)[C@H](CCCCN)NC(=O)[C@H](CC(C)C)NC(=O)C(C)(C)NC(=O)[C@H](CC(N)=O)NC(=O)[C@H](CCC(N)=O)NC(=O)[C@H](CCCCN)NC(=O)[C@@H](NC(=O)[C@H](Cc1ccc(O)cc1)NC(=O)[C@H](CCCCN)NC(=O)[C@@H]1CCCN1)C(C)C)C(=O)N[C@@H](C)C(=O)N[C@H](C(=O)O)[C@@H](C)O [Aib8] | 140 | 140 | 550 | 0.8 | 90 | – | – | – | – | – |
| CC(C)C[C@H](NC(=O)[C@@H](NC(=O)[C@H](CC(N)=O)NC(=O)[C@H](CCC(N)=O)NC(=O)[C@H](CCCCN)NC(=O)[C@@H](NC(=O)[C@H](Cc1ccc(O)cc1)NC(=O)[C@H](CCCCN)NC(=O)[C@@H]1CCCN1)C(C)C)[C@@H](C)O)C(=O)NC(C)(C)C(=O)N[C@@H](CC(C)C)C(=O)N[C@@H](C)C(=O)N[C@H](C(=O)O)[C@@H](C)O [Aib10] | 5000 | 490 | 8000 | 9 | 16000 | – | – | – | – | – |
| CC(C)C[C@H](NC(=O)[C@@H](NC(=O)[C@H](CC(N)=O)NC(=O)[C@H](CCC(N)=O)NC(=O)[C@H](CCCCN)NC(=O)[C@@H](NC(=O)[C@H](Cc1ccc(O)cc1)NC(=O)[C@H](CCCCN)NC(=O)[C@@H]1CCCN1)C(C)C)[C@@H](C)O)C(=O)N[C@@H](CCCCN)C(=O)NC(C)(C)C(=O)N[C@@H](C)C(=O)N[C@H](C(=O)O)[C@@H](C)O [Aib11] | 95 | 25 | 350 | 20 | 3000 | – | – | – | – | – |
| CC(C)C[C@H](NC(=O)[C@H](CCCCN)NC(=O)[C@H](CC(C)C)NC(=O)[C@@H](NC(=O)[C@H](CC(N)=O)NC(=O)[C@H](CCC(N)=O)NC(=O)[C@H](CCCCN)NC(=O)[C@@H](NC(=O)[C@H](Cc1ccc(O)cc1)NC(=O)[C@H](CCCCN)NC(=O)[C@@H]1CCCN1)C(C)C)[C@@H](C)O)C(=O)NC(C)(C)C(=O)N[C@H](C(=O)O)[C@@H](C)O [Aib12] | 5 | 32 | 100 | 0.7 | 9 | – | – | – | – | – |
| CC(C)C[C@H](NC(=O)[C@H](CCCCN)NC(=O)[C@H](CC(C)C)NC(=O)[C@@H](NC(=O)[C@H](CC(N)=O)NC(=O)[C@H](CCC(N)=O)NC(=O)[C@H](CCCCN)NC(=O)[C@@H](NC(=O)[C@H](Cc1ccc(O)cc1)NC(=O)[C@H](CCCCN)NC(=O)[C@@H]1CCCN1)C(C)C)[C@@H](C)O)C(=O)N[C@@H](C)C(=O)NC(C)(C)C(=O)O [Aib13] | 2 | 6 | 8 | 0.2 | 6 | – | – | – | – | – |
| CC(C)C[C@H](NC(=O)[C@H](CCCCN)NC(=O)[C@H](CC(C)C)NC(=O)[C@@H](NC(=O)[C@H](CC(N)=O)NC(=O)[C@H](CCC(N)=O)NC(=O)[C@H](CCCCN)NC(=O)[C@@H](NC(=O)CN(Cc1ccc(O)cc1)C(=O)[C@H](CCCCN)NC(=O)[C@@H]1CCCN1)C(C)C)[C@@H](C)O)C(=O)N[C@@H](C)C(=O)N[C@H](C(=O)O)[C@@H](C)O [Pep3] | 14000 | > 10000 | > 100000 | 4000 | > 100000 | – | – | – | – | – |
| CC(C)C[C@H](NC(=O)[C@H](CCCCN)NC(=O)[C@H](CC(C)C)NC(=O)[C@@H](NC(=O)[C@H](CC(N)=O)NC(=O)[C@H](CCC(N)=O)NC(=O)[C@H](CCCCN)NC(=O)CN(C(=O)[C@H](Cc1ccc(O)cc1)NC(=O)[C@H](CCCCN)NC(=O)[C@@H]1CCCN1)C(C)C)[C@@H](C)O)C(=O)N[C@@H](C)C(=O)N[C@H](C(=O)O)[C@@H](C)O [Pep4] | 280 | 14 | 6000 | 5 | 710 | – | – | – | – | – |
| CC(C)C[C@H](NC(=O)[C@H](CCCCN)NC(=O)[C@H](CC(C)C)NC(=O)[C@@H](NC(=O)[C@H](CC(N)=O)NC(=O)CN(CCC(N)=O)C(=O)[C@H](CCCCN)NC(=O)[C@@H](NC(=O)[C@H](Cc1ccc(O)cc1)NC(=O)[C@H](CCCCN)NC(=O)[C@@H]1CCCN1)C(C)C)[C@@H](C)O)C(=O)N[C@@H](C)C(=O)N[C@H](C(=O)O)[C@@H](C)O [Pep6] | 10 | 82 | 45 | 0.4 | 290 | – | – | – | – | – |
| CC(C)C[C@H](NC(=O)[C@H](CCCCN)NC(=O)[C@H](CC(C)C)NC(=O)[C@@H](NC(=O)CN(CC(N)=O)C(=O)[C@H](CCC(N)=O)NC(=O)[C@H](CCCCN)NC(=O)[C@@H](NC(=O)[C@H](Cc1ccc(O)cc1)NC(=O)[C@H](CCCCN)NC(=O)[C@@H]1CCCN1)C(C)C)[C@@H](C)O)C(=O)N[C@@H](C)C(=O)N[C@H](C(=O)O)[C@@H](C)O [Pep7] | – | – | – | – | – | 15 | 450 | 200 | 0.3 | 16 |
| CC(C)C[C@H](NC(=O)[C@@H](NC(=O)[C@H](CC(N)=O)NC(=O)[C@H](CCC(N)=O)NC(=O)[C@H](CCCCN)NC(=O)[C@@H](NC(=O)[C@H](Cc1ccc(O)cc1)NC(=O)[C@H](CCCCN)NC(=O)[C@@H]1CCCN1)C(C)C)[C@@H](C)O)C(=O)N[C@@H](CCCCN)C(=O)N[C@@H](CC(C)C)C(=O)N(C)CC(=O)N[C@H](C(=O)O)[C@@H](C)O [Pep12] | 3 | 4 | 14 | 0.3 | 10 | – | – | – | – | – |
